Assay results reported in US11312712B2, “Azabenzimidazoles and their use as AMPA receptor modulators” (Janssen Pharmaceutica NV, priority 2015, dated 2022).
pIC50: −log10 of the molar value.

Target: GluA1o-γ8 (GRIA1o-CACNG8 fusion construct) (Homo sapiens (Human), UniProt P42261+Q8WXS5)
Assay: Calcium flux assay (FLIPR), inhibition of TARP γ8 dependent AMPA receptor activity
Type: cell-based
Conditions: GluA1o-γ8 (GRIA1o-CACNG8 fusion) in HEK293 cells, calcium flux after 15 μM glutamate
In short: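 HEK293 cells stably expressing a 1:1 GRIA1o–CACNG8 fusion were loaded with Calcium-5/6 dye plus compound in pH 7.4 HEPES-buffered saline. FLIPR calcium flux after 15 μM glutamate was normalized to untreated and 10 μM CP465022 controls, and a four-parameter logistic fit gave pIC50.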

Chain of GluA1o-γ8 (GRIA1o-CACNG8 fusion construct) (P42261 other isoform, or with tags, fused parts or gaps): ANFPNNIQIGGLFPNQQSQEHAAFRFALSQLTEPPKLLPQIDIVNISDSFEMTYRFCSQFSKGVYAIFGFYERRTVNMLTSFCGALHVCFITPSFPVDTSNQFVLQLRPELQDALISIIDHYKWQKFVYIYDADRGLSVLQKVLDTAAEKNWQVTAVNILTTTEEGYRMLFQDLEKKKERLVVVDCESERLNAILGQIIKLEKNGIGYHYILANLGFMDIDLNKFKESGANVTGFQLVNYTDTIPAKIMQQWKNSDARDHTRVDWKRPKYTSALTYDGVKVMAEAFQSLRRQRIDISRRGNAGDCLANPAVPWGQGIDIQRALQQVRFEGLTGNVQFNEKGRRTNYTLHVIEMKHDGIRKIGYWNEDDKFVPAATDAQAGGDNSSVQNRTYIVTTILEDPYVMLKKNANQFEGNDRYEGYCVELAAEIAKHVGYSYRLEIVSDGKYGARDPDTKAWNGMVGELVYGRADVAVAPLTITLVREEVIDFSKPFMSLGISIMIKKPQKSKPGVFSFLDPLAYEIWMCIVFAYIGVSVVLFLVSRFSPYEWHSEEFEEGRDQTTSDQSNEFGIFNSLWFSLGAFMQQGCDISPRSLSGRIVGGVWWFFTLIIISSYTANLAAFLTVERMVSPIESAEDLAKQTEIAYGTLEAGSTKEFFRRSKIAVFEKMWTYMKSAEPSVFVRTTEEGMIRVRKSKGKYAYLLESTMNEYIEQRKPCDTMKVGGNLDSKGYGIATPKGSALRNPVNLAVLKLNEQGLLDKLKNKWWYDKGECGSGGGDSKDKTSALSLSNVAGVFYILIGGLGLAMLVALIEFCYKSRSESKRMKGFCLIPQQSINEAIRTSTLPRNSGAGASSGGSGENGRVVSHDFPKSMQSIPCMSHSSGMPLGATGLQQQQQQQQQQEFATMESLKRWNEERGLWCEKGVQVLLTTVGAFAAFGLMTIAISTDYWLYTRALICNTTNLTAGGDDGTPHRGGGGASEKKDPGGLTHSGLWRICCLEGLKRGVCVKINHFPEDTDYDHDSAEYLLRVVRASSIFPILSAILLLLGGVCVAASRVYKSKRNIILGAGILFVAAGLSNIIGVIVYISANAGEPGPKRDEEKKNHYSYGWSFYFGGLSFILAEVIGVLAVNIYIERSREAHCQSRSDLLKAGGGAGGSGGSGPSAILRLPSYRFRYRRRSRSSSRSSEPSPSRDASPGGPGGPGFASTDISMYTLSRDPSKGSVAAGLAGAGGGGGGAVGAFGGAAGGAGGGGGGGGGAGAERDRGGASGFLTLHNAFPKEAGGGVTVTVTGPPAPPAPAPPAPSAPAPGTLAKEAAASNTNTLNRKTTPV

pIC50 | SMILES
6.70 | OC1(c2nc3ccc(C(F)(F)F)nc3n2-c2ccc3[nH]ncc3c2)CC1 [Example 115, 1-[3-(1H-Indazol-5-yl)-5-(trifluoromethyl)imidazo[4,5-b]pyridin-2-yl]cyclopropanol]
8.70 | CC(F)(F)c1nc2ccc(C(F)(F)F)nc2n1-c1ccc2[nH]ncc2c1 [Example 116, 2-(1,1-Difluoroethyl)-3-(1H-indazol-5-yl)-5-(trifluoromethyl)imidazo[4,5-b]pyridine]
9.80 | CC(C)(C)c1ccc2nc(-c3ccc(F)cc3)n(-c3ccc4[nH]ncc4c3)c2n1 [Example 118, 5-tert-Butyl-2-(4-fluorophenyl)-3-(1H-indazol-5-yl)imidazo[4,5-b]pyridine]
10.50 | CC(C)c1ccc2nc(C3CCC3)n(-c3ccc4[nH]ncc4c3)c2n1 [Example 119, 2-Cyclobutyl-3-(1H-indazol-5-yl)-5-isopropyl-imidazo[4,5-b]pyridine]
10.30 | CC(C)c1ccc2nc(-c3ccc(F)cc3)n(-c3ccc4[nH]ncc4c3)c2n1 [Example 120, 2-(4-Fluorophenyl)-3-(1H-indazol-5-yl)-5-isopropyl-imidazo[4,5-b]pyridine]
9.30 | Cc1cc(-c2nc3ccc(C(F)(F)F)nc3n2-c2ccc3[nH]ncc3c2)ccc1F [Example 121, 2-(4-Fluoro-3-methyl-phenyl)-3-(1H-indazol-5-yl)-5-(trifluoromethyl)imidazo[4,5-b]pyridine]
9.50 | Cc1cccc(-c2nc3ccc(C(F)(F)F)nc3n2-c2ccc3[nH]ncc3c2)c1 [Example 122, 3-(1H-Indazol-5-yl)-2-(m-tolyl)-5-(trifluoromethyl)imidazo[4,5-b]pyridine]

More lines, now with the values behind:

SMILES | pIC50
CCc1nc2ccc(C(F)(F)F)nc2n1-c1ccc2[nH]ncc2c1 [Example 105, 2-Ethyl-3-(1H-indazol-5-yl)-5-(trifluoromethyl)imidazo[4,5-b]pyridine] | 8.10
O=c1[nH]c2ccc(-n3c(C4CC4)nc4ccc(C(F)(F)F)nc43)cc2[nH]1 [Example 106, 5-[2-Cyclopropyl-5-(trifluoromethyl)imidazo[4,5-b]pyridin-3-yl]-1,3-dihydrobenzimidazol-2-one] | 8.60
O=c1[nH]c2ccc(-n3c(C4CC4)nc4ccc(C(F)(F)F)nc43)cc2o1 [Example 107, 6-[2-Cyclopropyl-5-(trifluoromethyl)imidazo[4,5-b]pyridin-3-yl]-3H-1,3-benzoxazol-2-one] | 7.80
CC(C)(C)c1nc2ccc(C(F)(F)F)nc2n1-c1ccc2[nH]ncc2c1 [Example 108, 2-tert-Butyl-3-(1H-indazol-5-yl)-5-(trifluoromethyl)imidazo[4,5-b]pyridine] | 7.70
CC(C)c1nc2ccc(C(F)(F)F)nc2n1-c1ccc2[nH]ncc2c1 [Example 109, 3-(1H-Indazol-5-yl)-2-isopropyl-5-(trifluoromethyl)imidazo[4,5-b]pyridine] | 9.60
Fc1ccc(-c2nc3ccc(C(F)(F)F)nc3n2-c2ccc3[nH]ncc3c2)cc1 [Example 110, 2-(4-Fluorophenyl)-3-(1H-indazol-5-yl)-5-(trifluoromethyl)imidazo[4,5-b]pyridine] | 9.50
O=c1[nH]c2ccc(-n3c(-c4ccccc4)nc4ccc(O)nc43)cc2s1 [Example 111, 6-(5-Hydroxy-2-phenyl-imidazo[4,5-b]pyridin-3-yl)-3H-1,3-benzothiazol-2-one] | 7.80
Fc1ccc(-c2nc3cccnc3n2-c2cnc3[nH]ncc3c2)cc1 [Example 112, 2-(4-Fluorophenyl)-3-(1H-pyrazolo[3,4-b]pyridin-5-yl)imidazo[4,5-b]pyridine] | 6.40
FC(F)(F)Cc1nc2ccc(C(F)(F)F)nc2n1-c1ccc2[nH]ncc2c1 [Example 113, 3-(1H-Indazol-5-yl)-2-(2,2,2-trifluoroethyl)-5-(trifluoromethyl)imidazo[4,5-b]pyridine] | 6.60
CCOc1nc2ccc(C(F)(F)F)nc2n1-c1ccc2[nH]ncc2c1 [Example 114, 2-Ethoxy-3-(1H-indazol-5-yl)-5-(trifluoromethyl)imidazo[4,5-b]pyridine] | 7.90
